In US20250188618A1, “AMINO ACID DERIVATIVES AND SULFUR DERIVATIVES AS BIODEGRADABLE CORROSION INHIBITORS” (ChampionX LLC, priority 2023, published 2025):

Columns and labels:
[1] = Bubble cell test, corrosion rate by linear polarization resistance (LPR); details: during 2 hour pre-corrode, prior to the addition of corrosion inhibitor; CO2 saturated 3% NaCl brine 80% / hydrocarbon oil 20%, 65° C.
Procedure: The derivatized succinate corrosion inhibitors made according to Examples 1-5 were evaluated using bubble cell tests to assess corrosion performance using linear polarization resistance testing. The derivatized succinate corrosion inhibitors were combined with the sulfur synergist 2-mercaptoethanol in a solution so that the concentrations of corrosion inhibitor and 2-mercaptoethanol were 10% and 1% by weight, respectively. Methanol, isopropanol, water, and combinations thereof were used as solvents. Acids or bases were sometimes added either to form or neutralize salts of the inhibitors to influence their solubility. This solution was then dosed into the bubble cell at a concentration of 50 ppm, ultimately providing 5 ppm of corrosion inhibitor and 0.5 ppm of 2-mercaptoethanol. The bubble test simulates low flow areas where little or no mixing of water and oil occurs. The test was conducted using a mixed fluid composed of 80% by volume of synthetic brine composed of 3% sodium chloride and 20% of hydrocarbon oil.
The brine without inhibitor was first placed into kettles and purged with carbon dioxide for one hour resulting in carbon dioxide saturated brine. The brine was heated to 65° C., and electrodes were introduced into the de-aerated brine, followed by de-aerated oil, all of which was continually purged with carbon dioxide at 1 bar CO2 to saturate the brine for a 2 hour pre-corrode. The kettles were magnetically stirred at 100 revolutions per minute (rpm) for the duration of the test. The CO2 purge was switched to a blanket, the corrosion inhibitor solution was added, and the test timer started. Data were collected overnight for 15-hour test duration.
The corrosion rate was measured by Linear Polarization Resistance (LPR) techniques. The working electrode used was carbon steel (C1018 grade). The counter and reference electrodes were both Hastelloy. The electrodes were all cleaned and polished prior to testing. Corrosion rates were given in milli-inches per year (mpy), calculated from the current measured by LPR. Corrosion inhibition is compared to two known corrosion inhibitors: a cationic surfactant (alkylbenzyldimethylammonium chloride) and a Tall oil fatty acid (TOFA)-diethylenetriamine (DETA) imidazoline.
The bubble cell results provide a low shear screening designed for continuous application. The performance is measured as percent protection by comparing the initial corrosion rate during pre-corrode, prior to the addition of a corrosion inhibitor, to the final corrosion rate, measured 15 hours after corrosion inhibitor dosing.

[2] = Wheel box testing, corrosion inhibition persistence for batch applications; details: 1% corrosion inhibitor active in 3% NaCl, 60° C., saturated CO2 at 1 atm, 96 hour, average of 2 runs; inhibitor in neutral form
Procedure: The corrosion inhibitors were tested using wheel box testing which is a screening method for measuring corrosion inhibition persistence for batch applications. Metal coupons are dip-coated in a solution of the inhibitor in neutral form (non-salt), then placed onto a wheel and immersed in corrosive solution. The wheel is rotated in the solution under desired conditions. At regular time intervals, the solution without inhibitor is replenished. At the conclusion of the test, corrosion rates are measured as a function of the mass loss of the metal coupons.

Molecule	Initial corrosion rate (mpy) [1] [mpy]	Wheel-Box, % Inhibition [2] [%]
alkylbenzyldimethylammonium chloride [Cationic surfactant control, reference compound]	233.4	–
2-sulfosuccinic acid, iso-C11-14-alkyl ester, disodium salt [Example 6]	186.9	–
N-(oleyl)aspartic acid, 2-ethylhexyl ester [Example 4]	213.0	64
N-oleylaspartic acid, iso-C11-14-alkyl ester [Example 2]	252.4	–
CCCCCCCCCCCCSC(CC(=O)O)C(=O)[O-].[Na+] (centres unmarked) [Example 8, 2-(dodecylthio)succinic acid, monosodium salt]	137.2	–
6,9-dioxa-3,12-diazatetradecane-1,2,13,14-tetracarboxylic acid, dioleyl ester [Example 10]	157.2	42
N-(2-ethylhexyl)aspartic acid, C12-15-alkyl ester [Example 1]	245.7	–
2-(carboxymethylthio)succinic acid, iso-C11-14-alkyl ester, monosodium salt [Example 7]	160.1	–
CCCCCCCC/C=C\CCCCCCCCN[C@@H](CC(=O)O)C(=O)[O-].[K+] [Example 5, N-(oleyl)aspartic acid, monopotassium salt]	103.3	–
CCCCCCCCCCCCOC(=O)CC1NCCN(CCN)C1=O (centres unmarked) [Example 9, (4-(2-aminoethyl)-3-oxo-2-piperazinyl)acetic acid, dodecyl ester]	204.3	–
N-(2-ethylhexyl)aspartic acid, 2-ethylhexyl ester [Example 3]	248.8	56
